The source of these data is patent publication US20060211748A1, “Sulphydryl compounds in combination with sulpha compounds” (priority 2002, published 2006).

For data set [1] the following is noted: treatment of opportunistic infections associated with AIDS; cited from earlier work.
In data set [2] the test system is ^51Cr-labelled erythrocytes. Nature of the data set: Half-life of 51Cr-labelled erythrocytes challenged in vitro with DDS N-hydroxylamine and re-introduced to autologous rats. The format is in vivo. Particulars: red cells incubated two hours with DDS N-hydroxylamine 0.05 to 0.5 millimolar with N-acetyl-L-cysteine 2 to 10 millimolar, reintroduced into autologous rat. The method, then:
Blood is drawn from laboratory rats into heparinized tubes, washed using conventional methods, and resuspended in buffered saline solution. Red blood cells are labeled with ^51Cr as chromate using the CPD standard method known to those skilled in the art. After resuspension in isotonic saline, DDS N-hydroxylamine alone (control) or with N-acetyl-L-cysteine (treatment) are added at final concentrations of 0.05 to 0.5 millimolar and 2 millimolar to 10 millimolar, respectively, and incubated for two hours. A 0.5 milliliter sample of the washed and resuspended red blood cells is then reintroduced into the autologous animal. Half-life of the labeled erythrocytes is determined by blood sampling every two days and counting of radioactive decay in the sample using a gamma counter.

On to `Nc1ccc(S(=O)(=O)c2ccc(N)cc2)cc1` [DDS, 4,4′-diaminodiphenylsulphone], for which, in data set [1], the “Discontinuation of clinical use due to toxicity” value is reported as “about 25 % of patients”.

With `CC(=O)N[C@@H](CS)C(=O)O` [N-acetyl-L-cysteine], in data set [2], the “Half-life of ^51Cr-labelled erythrocytes” value is “able to preserve the normal half-life”.
